Results from ChEMBL document CHEMBL5696442, “Discovery of type II inhibitors of TGFβ-activated kinase 1 (TAK1) and mitogen-activated protein kinase kinase kinase kinase 2 (MAP4K2)” (J Med Chem, 2015).
The source made the active and inactive calls. The calls are words filed in the database; no cut-off is given here.

How the values were obtained:
[1] = molecular target: Serine/threonine-protein kinase Nek4 (Homo sapiens) (UniProt P51957); test: Inhibition of NEK4 Lys2 labeling site in human Huh-7 cell lysate at 1 uM by KiNativ Profiling analysis relative to control; type: subcellular
Serine/threonine-protein kinase Nek4 (Homo sapiens), sequence (P51957 whole entry, looked up): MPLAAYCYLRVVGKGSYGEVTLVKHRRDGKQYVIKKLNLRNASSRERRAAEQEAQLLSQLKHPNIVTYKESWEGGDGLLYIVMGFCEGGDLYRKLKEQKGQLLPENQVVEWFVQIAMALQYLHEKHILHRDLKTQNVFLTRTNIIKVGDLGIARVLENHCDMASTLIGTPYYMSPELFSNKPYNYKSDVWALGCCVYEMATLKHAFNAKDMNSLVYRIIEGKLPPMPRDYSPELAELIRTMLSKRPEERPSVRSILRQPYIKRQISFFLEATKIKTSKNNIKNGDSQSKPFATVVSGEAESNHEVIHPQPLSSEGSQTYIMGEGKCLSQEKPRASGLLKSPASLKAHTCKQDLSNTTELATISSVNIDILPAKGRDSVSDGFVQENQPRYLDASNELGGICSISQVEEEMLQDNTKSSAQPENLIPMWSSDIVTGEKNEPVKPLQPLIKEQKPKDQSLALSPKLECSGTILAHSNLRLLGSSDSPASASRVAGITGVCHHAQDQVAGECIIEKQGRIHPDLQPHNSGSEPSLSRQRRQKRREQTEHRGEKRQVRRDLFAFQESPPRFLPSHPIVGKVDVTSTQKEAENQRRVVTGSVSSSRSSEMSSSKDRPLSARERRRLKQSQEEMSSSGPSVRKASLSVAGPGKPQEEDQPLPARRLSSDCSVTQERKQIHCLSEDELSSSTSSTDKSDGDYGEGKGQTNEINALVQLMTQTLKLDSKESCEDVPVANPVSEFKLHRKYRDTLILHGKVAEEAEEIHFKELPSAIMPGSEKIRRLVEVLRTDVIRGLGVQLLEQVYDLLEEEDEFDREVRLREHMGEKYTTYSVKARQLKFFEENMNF

[2] = molecular target: Phosphatidylinositol 4-kinase beta (Homo sapiens) (UniProt Q9UBF8); test: Inhibition of PI4KB ATP labeling site harbouring VPHTQAVVLNSKDK in human Huh-7 cell lysate at 1 uM by KiNativ Profiling analysis relative to control; type: subcellular
[3] = molecular target: Serine/threonine-protein kinase 25 (Homo sapiens) (UniProt O00506); test: Inhibition of YSK1 Lys2 labeling site in human Huh-7 cells at 1 uM by KiNativ Profiling analysis relative to control; type: cell-based
Serine/threonine-protein kinase 25 (Homo sapiens), sequence (O00506 whole entry, looked up): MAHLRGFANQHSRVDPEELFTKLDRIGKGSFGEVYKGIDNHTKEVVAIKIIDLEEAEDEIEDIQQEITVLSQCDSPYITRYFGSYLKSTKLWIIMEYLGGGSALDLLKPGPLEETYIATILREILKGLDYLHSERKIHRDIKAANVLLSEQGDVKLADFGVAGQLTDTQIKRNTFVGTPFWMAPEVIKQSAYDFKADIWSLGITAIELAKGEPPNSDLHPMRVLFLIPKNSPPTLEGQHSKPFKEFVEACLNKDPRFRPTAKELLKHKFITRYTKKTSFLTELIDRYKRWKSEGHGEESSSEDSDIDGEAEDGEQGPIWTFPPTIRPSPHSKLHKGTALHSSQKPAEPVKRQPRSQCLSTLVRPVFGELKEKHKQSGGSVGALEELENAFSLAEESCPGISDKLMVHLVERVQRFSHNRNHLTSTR

[4] = tested on: Tyrosine-protein kinase ABL1 (Homo sapiens), P00519 [H396P]; test: Inhibition of nonphosphorylated ABL1 H396P mutant (unknown origin) at 1 uM by Ambit Kinomescan binding assay relative to control
[5] = molecular target: Serine/threonine-protein kinase mTOR (Homo sapiens) (UniProt P42345); test: Inhibition of FRAP ATP labeling site in human A-375 cells at 0.05 uM by KiNativ Profiling analysis relative to control; type: cell-based
[6] = molecular target: Serine/threonine-protein kinase pim-3 (Homo sapiens) (UniProt Q86V86); test: Inhibition of PIM3 (unknown origin) at 1 uM by Ambit Kinomescan binding assay relative to control; values are per cent of control
[7] = molecular target: T1, Mitogen-activated protein kinase kinase kinase 15 (Homo sapiens) (UniProt Q6ZN16); test: Inhibition of MAP3K15 (unknown origin) at 1 uM by Ambit Kinomescan binding assay relative to control; values are per cent of control
T1 sequence (whole entry): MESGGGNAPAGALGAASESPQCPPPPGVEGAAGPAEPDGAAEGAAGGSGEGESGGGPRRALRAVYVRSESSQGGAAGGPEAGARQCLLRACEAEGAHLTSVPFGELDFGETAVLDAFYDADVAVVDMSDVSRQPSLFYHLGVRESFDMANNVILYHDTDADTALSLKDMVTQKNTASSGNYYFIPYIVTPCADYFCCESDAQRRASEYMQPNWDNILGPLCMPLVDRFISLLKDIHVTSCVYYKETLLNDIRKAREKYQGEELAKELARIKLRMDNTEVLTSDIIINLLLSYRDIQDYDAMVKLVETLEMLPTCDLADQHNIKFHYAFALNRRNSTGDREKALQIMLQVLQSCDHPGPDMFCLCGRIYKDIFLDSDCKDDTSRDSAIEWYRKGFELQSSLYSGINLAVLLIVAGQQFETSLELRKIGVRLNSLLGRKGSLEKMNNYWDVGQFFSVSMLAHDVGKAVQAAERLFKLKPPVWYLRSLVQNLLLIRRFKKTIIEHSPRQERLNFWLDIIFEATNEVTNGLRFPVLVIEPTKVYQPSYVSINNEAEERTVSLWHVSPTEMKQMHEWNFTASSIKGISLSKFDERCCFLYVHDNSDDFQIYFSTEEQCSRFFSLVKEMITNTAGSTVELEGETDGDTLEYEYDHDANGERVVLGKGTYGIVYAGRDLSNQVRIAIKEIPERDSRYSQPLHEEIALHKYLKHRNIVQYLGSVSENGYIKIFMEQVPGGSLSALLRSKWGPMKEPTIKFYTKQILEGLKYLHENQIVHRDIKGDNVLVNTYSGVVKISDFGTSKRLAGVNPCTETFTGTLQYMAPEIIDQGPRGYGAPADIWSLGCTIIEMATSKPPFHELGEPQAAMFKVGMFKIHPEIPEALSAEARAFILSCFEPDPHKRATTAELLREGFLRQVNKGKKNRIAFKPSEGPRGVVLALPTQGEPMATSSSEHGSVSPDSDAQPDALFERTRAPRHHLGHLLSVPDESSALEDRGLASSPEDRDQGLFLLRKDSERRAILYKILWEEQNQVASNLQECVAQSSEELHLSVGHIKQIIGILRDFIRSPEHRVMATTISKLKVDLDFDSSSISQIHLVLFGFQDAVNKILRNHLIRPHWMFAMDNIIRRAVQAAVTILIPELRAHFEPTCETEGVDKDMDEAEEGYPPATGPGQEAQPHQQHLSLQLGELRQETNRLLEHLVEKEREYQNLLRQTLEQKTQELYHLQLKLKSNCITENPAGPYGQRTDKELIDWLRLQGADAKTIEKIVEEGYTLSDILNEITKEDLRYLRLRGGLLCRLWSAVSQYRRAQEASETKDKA

[8] = molecular target: Serine/threonine-protein kinase 4 (Homo sapiens) (UniProt Q13043); test: Inhibition of MST1 Lys1 labeling site harbouring AIHKETGQIVAIKQVPVESDLQEIIK in human A-375 cells at 0.05 uM by KiNativ Profiling analysis relative to control
Serine/threonine-protein kinase 4 (Homo sapiens), sequence (Q13043 whole entry, looked up): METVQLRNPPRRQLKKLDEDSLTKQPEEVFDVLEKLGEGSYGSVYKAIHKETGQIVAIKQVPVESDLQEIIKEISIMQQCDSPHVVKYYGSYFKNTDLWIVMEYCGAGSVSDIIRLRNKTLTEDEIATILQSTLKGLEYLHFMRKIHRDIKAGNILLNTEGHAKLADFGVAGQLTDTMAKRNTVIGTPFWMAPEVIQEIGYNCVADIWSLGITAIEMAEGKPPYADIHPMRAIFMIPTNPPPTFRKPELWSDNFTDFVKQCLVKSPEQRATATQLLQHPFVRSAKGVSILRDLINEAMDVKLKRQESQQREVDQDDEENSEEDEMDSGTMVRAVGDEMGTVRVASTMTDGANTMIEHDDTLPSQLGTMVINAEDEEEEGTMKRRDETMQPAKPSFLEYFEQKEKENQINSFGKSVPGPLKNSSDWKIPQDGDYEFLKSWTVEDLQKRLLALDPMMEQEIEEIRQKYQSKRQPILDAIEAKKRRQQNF

[9] = molecular target: Glycogen synthase kinase-3 alpha (Homo sapiens) (UniProt P49840); test: Inhibition of GSK3A (unknown origin) at 10 uM by Ambit Kinomescan binding assay
Glycogen synthase kinase-3 alpha (Homo sapiens), sequence (P49840 2-483 limits assumed): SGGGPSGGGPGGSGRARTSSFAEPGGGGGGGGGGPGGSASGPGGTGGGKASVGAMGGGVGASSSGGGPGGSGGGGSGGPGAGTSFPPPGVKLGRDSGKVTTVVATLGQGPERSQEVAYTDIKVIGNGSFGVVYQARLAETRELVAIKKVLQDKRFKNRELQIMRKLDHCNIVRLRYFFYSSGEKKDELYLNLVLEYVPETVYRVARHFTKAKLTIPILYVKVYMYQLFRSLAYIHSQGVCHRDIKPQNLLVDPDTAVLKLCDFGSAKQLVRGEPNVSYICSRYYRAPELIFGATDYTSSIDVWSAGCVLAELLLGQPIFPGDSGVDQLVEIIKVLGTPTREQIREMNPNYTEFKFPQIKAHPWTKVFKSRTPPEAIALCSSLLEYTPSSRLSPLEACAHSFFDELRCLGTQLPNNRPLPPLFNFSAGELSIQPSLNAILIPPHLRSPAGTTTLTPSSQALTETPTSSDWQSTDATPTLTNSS

[10] = molecular target: T2, EKC/KEOPS complex subunit TP53RK (Homo sapiens) (UniProt Q96S44); test: Inhibition of PRPK ATP Loop labeling site in human A-375 cells at 5 uM by KiNativ Profiling analysis relative to control; type: cell-based
T2 sequence (whole entry): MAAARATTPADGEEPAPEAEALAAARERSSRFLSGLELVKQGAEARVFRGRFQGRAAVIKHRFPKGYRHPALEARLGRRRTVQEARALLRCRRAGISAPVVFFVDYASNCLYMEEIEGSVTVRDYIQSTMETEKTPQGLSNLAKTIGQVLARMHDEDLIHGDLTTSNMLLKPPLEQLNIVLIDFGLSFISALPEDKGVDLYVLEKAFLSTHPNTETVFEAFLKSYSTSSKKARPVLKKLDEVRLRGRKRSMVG

[11] = molecular target: Cyclin-dependent kinase 20 (Homo sapiens) (UniProt Q8IZL9); test: Inhibition of CCRK Lys2 labeling site in human A-375 cells at 0.5 uM by KiNativ Profiling analysis relative to control; type: cell-based
Cyclin-dependent kinase 20 (Homo sapiens), sequence (Q8IZL9 whole entry): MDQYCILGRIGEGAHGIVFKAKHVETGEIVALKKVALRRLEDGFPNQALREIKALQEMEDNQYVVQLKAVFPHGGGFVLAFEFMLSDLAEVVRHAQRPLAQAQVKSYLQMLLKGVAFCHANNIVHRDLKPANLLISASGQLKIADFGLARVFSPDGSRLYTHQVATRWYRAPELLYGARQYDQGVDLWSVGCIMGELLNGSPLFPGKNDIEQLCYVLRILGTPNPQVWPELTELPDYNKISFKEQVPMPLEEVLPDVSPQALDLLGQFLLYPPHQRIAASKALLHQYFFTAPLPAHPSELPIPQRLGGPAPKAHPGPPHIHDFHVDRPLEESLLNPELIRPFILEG

[12] = molecular target: Interferon-induced, double-stranded RNA-activated protein kinase (Homo sapiens) (UniProt P19525); test: Inhibition of PKR Lys2 labeling site in human A-375 cells at 0.05 uM by KiNativ Profiling analysis relative to control; type: cell-based
Interferon-induced, double-stranded RNA-activated protein kinase (Homo sapiens), sequence (P19525 whole entry): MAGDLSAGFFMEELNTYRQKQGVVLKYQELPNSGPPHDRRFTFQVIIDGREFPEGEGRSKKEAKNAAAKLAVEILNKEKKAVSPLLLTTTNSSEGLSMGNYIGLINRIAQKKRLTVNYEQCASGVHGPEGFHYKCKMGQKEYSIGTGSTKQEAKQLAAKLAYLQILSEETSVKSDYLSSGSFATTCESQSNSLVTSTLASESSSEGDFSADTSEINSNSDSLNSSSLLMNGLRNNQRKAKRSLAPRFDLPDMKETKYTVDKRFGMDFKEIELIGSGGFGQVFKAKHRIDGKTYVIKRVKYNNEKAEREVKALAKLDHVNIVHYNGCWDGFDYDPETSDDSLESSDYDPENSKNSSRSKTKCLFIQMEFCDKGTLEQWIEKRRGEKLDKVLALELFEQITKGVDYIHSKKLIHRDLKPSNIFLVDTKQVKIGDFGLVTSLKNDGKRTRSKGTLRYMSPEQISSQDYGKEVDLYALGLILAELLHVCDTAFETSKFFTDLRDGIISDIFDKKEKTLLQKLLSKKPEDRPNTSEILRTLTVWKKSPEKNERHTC

[13] = molecular target: Casein kinase II subunit alpha (Homo sapiens) (UniProt P68400); test: Inhibition of CK2a1 in human Huh-7 cells at 1 uM by KiNativ Profiling analysis relative to control; type: cell-based
Casein kinase II subunit alpha (Homo sapiens), sequence (P68400 whole entry, looked up, canonical isoform): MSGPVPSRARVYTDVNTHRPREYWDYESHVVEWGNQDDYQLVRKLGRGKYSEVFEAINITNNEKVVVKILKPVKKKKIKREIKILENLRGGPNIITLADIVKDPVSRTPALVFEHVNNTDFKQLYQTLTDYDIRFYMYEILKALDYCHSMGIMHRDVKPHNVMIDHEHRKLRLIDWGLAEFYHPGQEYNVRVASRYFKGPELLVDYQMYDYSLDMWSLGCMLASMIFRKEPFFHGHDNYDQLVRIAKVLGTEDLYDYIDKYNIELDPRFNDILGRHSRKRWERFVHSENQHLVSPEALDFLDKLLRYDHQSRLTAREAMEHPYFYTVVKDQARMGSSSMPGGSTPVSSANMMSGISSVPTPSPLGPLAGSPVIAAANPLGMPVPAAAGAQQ

[14] = molecular target: Phosphatidylinositol 4,5-bisphosphate 3-kinase catalytic subunit beta isoform (Homo sapiens) (UniProt P42338); test: Inhibition of PIK3CB ATP labeling site in human Huh-7 cells at 1 uM by KiNativ Profiling analysis relative to control; type: cell-based
Phosphatidylinositol 4,5-bisphosphate 3-kinase catalytic subunit beta isoform (Homo sapiens), sequence (P42338 whole entry, looked up, canonical isoform): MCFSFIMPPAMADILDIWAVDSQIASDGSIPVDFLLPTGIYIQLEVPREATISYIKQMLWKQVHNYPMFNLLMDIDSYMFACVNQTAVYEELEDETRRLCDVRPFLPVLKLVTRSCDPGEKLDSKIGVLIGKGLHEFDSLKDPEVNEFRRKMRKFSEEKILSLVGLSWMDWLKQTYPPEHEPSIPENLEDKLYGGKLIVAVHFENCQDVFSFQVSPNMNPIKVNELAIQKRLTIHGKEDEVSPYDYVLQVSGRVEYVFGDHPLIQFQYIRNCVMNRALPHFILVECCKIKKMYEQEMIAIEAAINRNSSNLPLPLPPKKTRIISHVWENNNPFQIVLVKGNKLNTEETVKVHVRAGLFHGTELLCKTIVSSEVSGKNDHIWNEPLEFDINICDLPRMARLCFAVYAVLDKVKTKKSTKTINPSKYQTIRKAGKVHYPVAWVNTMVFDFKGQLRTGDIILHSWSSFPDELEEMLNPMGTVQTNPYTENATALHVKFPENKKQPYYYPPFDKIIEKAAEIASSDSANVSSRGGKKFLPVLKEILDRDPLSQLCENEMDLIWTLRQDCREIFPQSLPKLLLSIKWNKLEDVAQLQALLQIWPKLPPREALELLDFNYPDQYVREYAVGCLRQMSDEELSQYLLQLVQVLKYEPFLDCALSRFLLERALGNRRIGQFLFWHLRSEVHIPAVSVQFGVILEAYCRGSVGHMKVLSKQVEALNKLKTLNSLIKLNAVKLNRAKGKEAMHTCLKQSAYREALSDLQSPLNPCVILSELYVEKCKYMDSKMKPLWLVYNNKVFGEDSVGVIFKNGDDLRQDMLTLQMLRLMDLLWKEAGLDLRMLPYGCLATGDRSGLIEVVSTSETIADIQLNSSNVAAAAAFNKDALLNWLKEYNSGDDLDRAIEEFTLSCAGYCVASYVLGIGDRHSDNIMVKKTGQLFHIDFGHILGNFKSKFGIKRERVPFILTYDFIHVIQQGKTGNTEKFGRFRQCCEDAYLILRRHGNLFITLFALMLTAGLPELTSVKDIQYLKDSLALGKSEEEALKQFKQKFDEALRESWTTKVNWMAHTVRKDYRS

CNc1cc(Oc2cc(C(=O)Nc3cc(N4CCN(C)CC4)cc(C(F)(F)F)c3)ccc2C)ncn1
inhibition [1]: -2.2% | inhibition [2]: 1.9% | inhibition [3]: 25.2%

CCN1CCN(Cc2ccc(NC(=O)c3ccc(C)c(/C=C/c4cnc5[nH]ccc5c4OC)c3)cc2C(F)(F)F)CC1
inhibition [4]: 0% | inhibition [5]: -7.6% | residual activity [6]: 100% | residual activity [7]: 100% | inhibition [8]: 0.6%

CCN1CCN(Cc2ccc(NC(=O)c3ccc(C)c(Oc4ccnc5[nH]ccc45)c3)cc2C(F)(F)F)CC1
inhibition [9]: inactive | inhibition [10]: 8% | inhibition [11]: -2.3% | inhibition [12]: -8.1% | inhibition [13]: 16% | inhibition [14]: inactive
